US20240199572A1, “COMPOUNDS, COMPOSITIONS, AND METHODS FOR TREATING TYPE 2 DIABETES AND DEMENTIA” (THE BOARD OF TRUSTEES OF THE UNIVERSITY OF ILLINOIS, priority 2021, published 2024)

Key:
J774 cells [1] = test: BODIPY-cholesterol efflux from J774 macrophages to apoA1; assay type: cell-based
Method: Cholesterol Efflux. Plated J774 cells (RRID:CVCL 0358) purchased from ATCC and used without further validation were incubated in serum-free medium containing 0.5 μM BODIPY-cholesterol (Cayman) for 24 hours. Medium was replaced with fresh serum-free medium containing test compound for 24 hours. For experiments with probucol (Sigma), it was added at 20 μM for the final 2 hours with test compound. Then, fresh serum-free medium containing 20 μg/mL purified recombinant apolipoprotein A1 (Sigma) was added for 6 hours. Acceptor-containing medium was transferred to a new plate, while cells were lysed with RIPA buffer. Fluorescence (Ex480/Em530) was measured in both components, with data reported as % efflux=(medium fluorescence)/(medium fluorescence+lysate fluorescence) normalized to background efflux (% efflux in DMSO-treated cells without exogenous apoA1).

ABCA1 mRNA [2] = test: ABCA1 mRNA - J774 (qRT-PCR); assay type: cell-based, mouse
From the text: (§1) qRT-PCR. For cell samples, treated cells were lysed with RLT plus lysis buffer (Qiagen). RNA was isolated with Qiagen RNEASY® Plus columns per manufacturer instructions, then reverse-transcribed to cDNA using […]® III Reverse Transcriptase (200 U/μL, Invitrogen) per supplier protocol. qPCR experiments were either performed with TAQMAN® gene expression master mix (Invitrogen) on a StepOne™ qPCR instrument or with […]® SYBR® Green SuperMix (Quanta Biosciences) on CFX Connect™ Real-Time PCR Detection System (BioRad), with fold-change quantified by ΔΔCt. For animal samples, 100 mg tissue was homogenized in 1 mL acid-guanidinium-phenol based reagent sold under the tradename TRIZOL® (Ambion), mixed vigorously in chloroform, and separated by centrifugation. Aqueous layer containing RNA was added to Qiagen RNEASY® Plus column; remaining stops were as described above for cell lysates.

ABCA1 mRNA [3] = test: ABCA1 mRNA - HepG2 (qRT-PCR); assay type: cell-based, human
From the text: as §1

PPARβ/δ = molecular target: T1, PPARβ/δ (Homo sapiens, UniProt Q03181); test: PPARβ/δ NHR screen, antagonist mode; conditions: cell-based β-gal reporter assay, 10 μM
T1 sequence (Q03181 1-441): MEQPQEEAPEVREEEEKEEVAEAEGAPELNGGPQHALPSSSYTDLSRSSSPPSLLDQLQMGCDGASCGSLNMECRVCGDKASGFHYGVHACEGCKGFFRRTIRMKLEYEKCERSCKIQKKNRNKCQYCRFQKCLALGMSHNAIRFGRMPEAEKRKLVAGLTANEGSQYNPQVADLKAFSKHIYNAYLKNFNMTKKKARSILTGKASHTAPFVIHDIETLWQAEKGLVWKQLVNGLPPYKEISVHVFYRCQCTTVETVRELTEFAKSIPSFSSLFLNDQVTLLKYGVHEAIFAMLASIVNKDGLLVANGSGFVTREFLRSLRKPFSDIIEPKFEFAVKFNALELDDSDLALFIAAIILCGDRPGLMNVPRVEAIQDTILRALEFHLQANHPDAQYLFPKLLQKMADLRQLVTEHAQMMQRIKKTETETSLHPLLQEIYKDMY
Method: Receptor Binding Assays. Nuclear hormone (NHR) assays were performed by DiscoverX (Fremont, CA) on their NHR-Scan platform of cell-based protein-protein interaction assays. This platform uses a […] reporter that activates upon interaction of full-length receptor protein with steroid coactivator receptor peptides. In agonist mode, activity of CL2-57 at 10 μM was compared to maximal activity of published positive control agonists; in antagonist mode, reduction in activity with 10 μM CL2-57 from that observed at […] of published agonists was quantified.

ABCA1 protein = ABCA1 protein - HepG2 (immunoblot); assay type: cell-based; conditions: HepG2 hepatocarcinoma cells
Method: In vitro Immunoblot. Cells were lysed with RIPA buffer (Sigma) containing protease/phosphatase inhibitors (Cocktails II and III, respectively, EMD Millipore). Protein was quantified by BCA assay (Thermo Fisher Scientific). Denatured proteins were separated by gel electrophoresis (NuPage™ 4-12% Bis-Tris, Invitrogen) in MOPS running buffer at 120 V for 1 hour. Proteins were transferred to PDVF membranes (iBlot2). Membrane was blocked in 5% skim milk for 1 hour, incubated with primary antibody at 4° C. overnight, washed with TBST, and then incubated with HRP-linked secondary antibody (Cell Signaling Technology) for 1 hour at room temperature. After TBST wash, membrane was imaged using SUPERSIGNAL® West Femto™ substrate (Thermo Fisher Scientific) on Azure Biosystems c400 imager. Antibodies used: Abcam ab18180 (ABCA1, RRID:AB 444302), Thermo Fisher MA5-11685 (SREBP1, RRID:AB_10984077), Invitrogen MA5-15738 (GAPDH, RRID:AB_10977387).

J774 cells [4] = test: siRNA knockdown of LXRα/LXRβ in J774 cells; assay type: cell-based
Method: siRNA Knockdown. J774 cells were plated in 24-well plates in serum-containing medium, to which an additional 100 μL of medium containing 10 pmol of siRNA and 3 μL of LIPOFECTAMINE® RNAIMAX® transfection reagent (Thermo Fisher Scientific) were added. After 24 hours, serum-free medium containing 10 μM C12-57 or vehicle control was added to each well for 24 hours. Cells were lysed and analyzed per qPCR and immunoblot procedures above. siRNAs used: Thermo Fisher 188584 (Nr1h3 silencer), 186947 (Nr1h2 silencer), and AM4611 (Silencer Negative Control siRNA #1).

CCOC(=O)c1cccc(NC(=O)c2sc(Cl)cc2S(=O)(=O)N(C)c2ccc(OCC)c(OCC)c2)c1 [CL2-57, ethyl 3-(5-chloro-3-(N-(3,4-diethoxyphenyl)-N-methylsulfamoyl)thiophene-2-carboxamido) benzoate]
Cholesterol Efflux - J774, activity of CL2-57 (10 μM) as % of T0901317 (1 μM) (J774 cells [1]; 10 μM): 183% | Cholesterol efflux from macrophages to apoA1 (J774 cells [1]; fluorescent BODIPY-tagged cholesterol): dose-dependently increased | Increased cholesterol efflux with ABCA1 inhibitor probucol (J774 cells [1]; probucol 20 μM for the final 2 hours): blocked | ABCA1 mRNA - J774, activity of CL2-57 (10 μM) as % of T0901317 (1 μM) (ABCA1 mRNA [2]; 10 μM): 90% | ABCA1 mRNA (ABCA1 mRNA [2]; J774 macrophage cells): Increased | ABCA1 mRNA - HepG2, activity of CL2-57 (10 μM) as % of T0901317 (1 μM) (ABCA1 mRNA [3]; 10 μM): 60% | ABCA1 mRNA (ABCA1 mRNA [3]; HepG2 hepatocarcinoma cells): Increased | Functional mode at PPARβ/δ (PPARβ/δ): weak antagonist | ABCA1 protein (ABCA1 protein): Increased | ABCA1 induction under LXR siRNA knockdown (J774 cells [4]; 10 μM, J774): mediated by LXRβ | Induction of Abcg1 under LXR siRNA knockdown (J774 cells [4]; J774): reduced by LXRβ knockdown | Induction of Slc2a1 (GLUT1) under LXR siRNA knockdown (J774 cells [4]; J774): reduced by LXRβ knockdown | Irs1 increases under LXR siRNA knockdown (J774 cells [4]; J774): not affected by loss of either LXR isoform | LXR target gene Apoe (J774 cells [4]; J774 cells): not significantly affected
